One block for each molecule: values may come before it.
Tests used:
[1] = target: T1, Ectonucleoside triphosphate diphosphohydrolase 8 (Homo sapiens, UniProt Q5MY95); experiment: Inhibition of human NTPDase8 expressed in green monkey Cos-7 cells using ATP as substrate preincubated for 3 mins followed by substrate addition by malachite green reagent based assay; format: cell-based
T1 sequence (Q5MY95 whole entry): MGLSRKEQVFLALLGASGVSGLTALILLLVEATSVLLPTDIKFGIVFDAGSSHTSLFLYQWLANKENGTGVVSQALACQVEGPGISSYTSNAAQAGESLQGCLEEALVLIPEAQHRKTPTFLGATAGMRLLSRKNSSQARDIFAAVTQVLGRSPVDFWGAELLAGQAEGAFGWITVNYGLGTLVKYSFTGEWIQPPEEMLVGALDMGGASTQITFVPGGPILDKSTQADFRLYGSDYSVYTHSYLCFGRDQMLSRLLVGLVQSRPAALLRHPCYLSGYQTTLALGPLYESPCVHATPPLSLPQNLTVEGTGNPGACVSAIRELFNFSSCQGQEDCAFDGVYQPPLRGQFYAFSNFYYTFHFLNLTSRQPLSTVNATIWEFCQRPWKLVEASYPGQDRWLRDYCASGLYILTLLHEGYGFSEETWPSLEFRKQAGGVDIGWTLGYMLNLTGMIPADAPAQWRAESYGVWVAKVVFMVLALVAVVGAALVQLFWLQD

[2] = target: T2, Ectonucleoside triphosphate diphosphohydrolase 1 (Mus musculus, UniProt P55772); experiment: Inhibition of mouse CD39 expressed in green monkey Cos-7 cells using ATP as substrate preincubated for 3 mins followed by substrate addition by malachite green reagent based assay; format: cell-based
T2 sequence (P55772 whole entry): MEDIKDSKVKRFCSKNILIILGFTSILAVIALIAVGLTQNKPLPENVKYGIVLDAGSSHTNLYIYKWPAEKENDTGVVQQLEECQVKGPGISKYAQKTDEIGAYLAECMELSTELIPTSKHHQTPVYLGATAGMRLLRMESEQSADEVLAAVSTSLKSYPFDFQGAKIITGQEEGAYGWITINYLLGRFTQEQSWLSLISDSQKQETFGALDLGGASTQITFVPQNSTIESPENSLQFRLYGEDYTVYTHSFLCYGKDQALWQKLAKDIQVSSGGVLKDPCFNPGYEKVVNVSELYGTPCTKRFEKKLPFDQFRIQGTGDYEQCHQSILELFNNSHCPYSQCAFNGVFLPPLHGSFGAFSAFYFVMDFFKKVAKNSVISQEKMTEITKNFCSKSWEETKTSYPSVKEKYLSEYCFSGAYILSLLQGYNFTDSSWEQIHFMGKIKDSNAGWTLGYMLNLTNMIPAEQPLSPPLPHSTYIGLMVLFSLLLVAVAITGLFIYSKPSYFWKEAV

[3] = target: T3, Ectonucleoside triphosphate diphosphohydrolase 3 (Homo sapiens, UniProt O75355); experiment: Competitive inhibition of human NTPDase3 using ATP as substrate preincubated for 3 mins followed by substrate addition and measured after 15 mins by Dixon and Cornish-Bowden plot analysis
T3 sequence (O75355 whole entry): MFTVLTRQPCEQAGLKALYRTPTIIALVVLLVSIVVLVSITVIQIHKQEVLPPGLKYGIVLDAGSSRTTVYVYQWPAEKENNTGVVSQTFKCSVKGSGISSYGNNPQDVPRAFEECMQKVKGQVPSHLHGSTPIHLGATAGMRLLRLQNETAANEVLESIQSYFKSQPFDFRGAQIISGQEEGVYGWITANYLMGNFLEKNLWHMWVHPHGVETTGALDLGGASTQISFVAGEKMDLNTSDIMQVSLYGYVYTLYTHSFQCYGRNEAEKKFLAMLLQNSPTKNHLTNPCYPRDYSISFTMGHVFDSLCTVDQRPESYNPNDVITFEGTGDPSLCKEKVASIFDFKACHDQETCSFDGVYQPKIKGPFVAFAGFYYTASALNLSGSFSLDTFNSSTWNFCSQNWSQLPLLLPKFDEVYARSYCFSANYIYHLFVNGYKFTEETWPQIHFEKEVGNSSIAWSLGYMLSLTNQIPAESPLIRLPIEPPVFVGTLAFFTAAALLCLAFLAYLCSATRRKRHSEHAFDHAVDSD

[4] = target: T4, Ectonucleoside triphosphate diphosphohydrolase 1 (Rattus norvegicus, UniProt P97687); experiment: Inhibition of rat CD39 expressed in CHO cells using ATP as substrate incubated for 10 mins by UV absorbance method; format: cell-based; conditions: cho
T4 sequence (P97687 whole entry): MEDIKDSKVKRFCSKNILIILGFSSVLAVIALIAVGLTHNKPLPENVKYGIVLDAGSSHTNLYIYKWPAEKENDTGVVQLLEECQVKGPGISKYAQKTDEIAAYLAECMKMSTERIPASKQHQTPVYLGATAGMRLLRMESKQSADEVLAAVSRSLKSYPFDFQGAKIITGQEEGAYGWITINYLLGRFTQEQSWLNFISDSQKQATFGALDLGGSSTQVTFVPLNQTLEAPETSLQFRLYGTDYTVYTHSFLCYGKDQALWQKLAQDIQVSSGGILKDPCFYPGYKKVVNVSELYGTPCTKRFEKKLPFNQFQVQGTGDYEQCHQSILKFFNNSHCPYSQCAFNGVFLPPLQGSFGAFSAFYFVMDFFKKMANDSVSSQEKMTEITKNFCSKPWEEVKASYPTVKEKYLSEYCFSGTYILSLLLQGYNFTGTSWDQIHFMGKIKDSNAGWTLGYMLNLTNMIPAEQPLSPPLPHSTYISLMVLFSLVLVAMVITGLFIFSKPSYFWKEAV

[5] = target: T5, Ectonucleoside triphosphate diphosphohydrolase 2 (Rattus norvegicus, UniProt O35795); experiment: Inhibition of rat NTPDase2 expressed in CHO cells using ATP as substrate incubated for 10 mins by UV absorbance method; format: cell-based; conditions: cho
T5 sequence (O35795 whole entry): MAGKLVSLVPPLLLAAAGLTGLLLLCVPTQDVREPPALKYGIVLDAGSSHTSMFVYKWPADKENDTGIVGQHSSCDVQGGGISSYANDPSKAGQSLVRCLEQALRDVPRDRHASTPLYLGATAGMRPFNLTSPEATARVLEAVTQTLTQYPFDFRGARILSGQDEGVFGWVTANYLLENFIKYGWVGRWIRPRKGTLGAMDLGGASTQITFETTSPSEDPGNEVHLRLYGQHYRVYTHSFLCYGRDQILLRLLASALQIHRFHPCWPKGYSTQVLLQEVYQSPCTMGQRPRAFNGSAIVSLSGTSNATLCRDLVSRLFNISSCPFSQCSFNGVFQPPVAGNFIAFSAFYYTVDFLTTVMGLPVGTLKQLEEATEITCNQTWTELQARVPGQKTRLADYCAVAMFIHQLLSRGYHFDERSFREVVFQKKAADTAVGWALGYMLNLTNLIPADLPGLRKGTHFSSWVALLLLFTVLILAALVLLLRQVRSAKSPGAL

[6] = Inhibition of rat NTPDase3 expressed in CHO cells using ATP as substrate incubated for 10 mins by UV absorbance method; format: cell-based
[7] = Selectivity ratio of Ki for rat NTPDase2 expressed in CHO cells to Ki for rat CD39 expressed in CHO cells
[8] = Selectivity ratio of Ki for rat NTPDase3 expressed in CHO cells to Ki for rat CD39 expressed in CHO cells

- IC50 [1]: > 100 µM
- IC50 [2]: > 100 µM
SMILES: Cc1ccc(C(=O)Nc2ccc(S(=O)(=O)O)c3cc(S(=O)(=O)O)cc(S(=O)(=O)O)c23)cc1NC(=O)c1cccc(NC(=O)Nc2cccc(C(=O)Nc3cc(C(=O)Nc4ccc(S(=O)(=O)O)c5cc(S(=O)(=O)O)cc(S(=O)(=O)O)c45)ccc3C)c2)c1 [SURAMIN]

SMILES: CCN(CC)c1ncnc2c1ncn2[C@@H]1O[C@H](COP(=O)(O)OP(=O)(O)C(Br)(Br)P(=O)(O)O)[C@@H](O)[C@H]1O
- Ki [3]: 18 µM

- Ki [4]: 0.328 µM
- Ki [5]: 19.1 µM
SMILES: Nc1c(S(=O)(=O)[O-])cc(Nc2ccc3ccccc3c2)c2c1C(=O)c1ccccc1C2=O.[Na+]
- Ki [6]: 2.22 µM
- Ratio Ki [7]: 58
- Ratio Ki [8]: 7

Reference: ChEMBL document CHEMBL4680277, “Targeting Metabolism of Extracellular Nucleotides via Inhibition of Ectonucleotidases CD73 and CD39” (J Med Chem, 2020)
